Data taken from ChEMBL document CHEMBL3885861, “Open TG-GATES”.

Organism: Rattus norvegicus
Assay: Open TG-GATES - Regimen: Single
Assay type: toxicity, organism-based, Sprague-Dawley
Design: regimen Single, gender Male, age 6 weeks
Details: in vivo, ip, route intraperitoneal injection; for APTT / Bas / Eos / Fbg / Hb / Ht / Lym / MCH / MCHC / MCV / Mono / Neu / PT / Plat / RBC / Ret / WBC: tissue Blood; for KIDNEY_L / KIDNEY_R / KIDNEY_TOTAL: tissue Kidney; for LIVER: tissue Liver; for A/G / ALP / ALT / AST / BUN / CRE / Ca / Cl / DBIL / GLC / IP / K / LDH / Na / PL / RALB / TBIL / TC / TG / TP / gamma-GTP: tissue Plasma
[1] = 0.1 mg/kg, 3 h, dose 100 ug/Kg, dose level Middle
[2] = 0.1 mg/kg, 6 h, dose 100 ug/Kg, dose level Middle
[3] = 0.1 mg/kg, 9 h, dose 100 ug/Kg, dose level Middle
[4] = 0.1 mg/kg, 24 h, dose 100 ug/Kg, dose level Middle
[5] = 0.3 mg/kg, 3 h, dose 300 ug/Kg, dose level High
[6] = 0.3 mg/kg, 6 h, dose 300 ug/Kg, dose level High
[7] = 0.3 mg/kg, 9 h, dose 300 ug/Kg, dose level High
[8] = 0.3 mg/kg, 24 h, dose 300 ug/Kg, dose level High

## CC(=O)N[C@H]1[C@@H](O[C@@H]2O[C@H](CC(O)[C@H]3O[C@@H](n4ccc(=O)[nH]c4=O)[C@H](O)[C@@H]3O)[C@H](O)[C@H](O)[C@H]2NC(=O)/C=C/CC(C)C)O[C@H](CO)[C@@H](N)[C@@H]1O (some centres undefined) [TUNICAMYCIN]
[1]
  TERMINAL_BW: 221.2 g
  APTT: 23.1 s
  Bas: 0%
  Eos: 0.6%
  Fbg: 292.6 mg/dL
  Hb: 12.8 g/dL
  Ht: 39.3%
  Lym: 71.2%
  MCH: 20.2 pg
  MCHC: 32.6%
  MCV: 62 fL
  Mono: 3.2%
  Neu: 24.2%
  PT: 15.9 s
  Plat: 122.6 x10_4/uL
  RBC: 636.4 x10_4/ul
  Ret: 8.1%
  WBC: 97.2 x10_2/uL
  KIDNEY_L: 0.9 g
  KIDNEY_R: 0.9 g
  KIDNEY_TOTAL: 1.9 g
  LIVER: 10.4 g
  A/G: 1.2
  ALP: 1559 IU/L
  ALT: 38.8 IU/L
  AST: 76.8 IU/L
  BUN: 13 mg/dL
  CRE: 0.2 mg/dL
  Ca: 10.6 mg/dL
  Cl: 106.8 meq/L
  DBIL: 0 mg/dL
  GLC: 167.2 mg/dL
  IP: 8.2 mg/dL
  K: 4.2 meq/L
  LDH: 158.2 IU/L
  Na: 142.8 meq/L
  PL: 122.8 mg/dL
  RALB: 2.9 g/dL
  TBIL: 0.012 mg/dL
  TC: 70.4 mg/dL
  TG: 70.2 mg/dL
  TP: 5.3 g/dL
  gamma-GTP: 1.4 IU/L
[2]
  TERMINAL_BW: 216.8 g
  APTT: 22.4 s
  Bas: 0%
  Eos: 0.4%
  Fbg: 315.6 mg/dL
  Hb: 13.2 g/dL
  Ht: 40.1%
  Lym: 67%
  MCH: 21 pg
  MCHC: 33%
  MCV: 63.7 fL
  Mono: 2%
  Neu: 30%
  PT: 15.7 s
  Plat: 110 x10_4/uL
  RBC: 630.4 x10_4/ul
  Ret: 7.9%
  WBC: 95.8 x10_2/uL
  KIDNEY_L: 1 g
  KIDNEY_R: 1 g
  KIDNEY_TOTAL: 1.9 g
  LIVER: 9.2 g
  A/G: 1.2
  ALP: 1277.4 IU/L
  ALT: 39.8 IU/L
  AST: 70.4 IU/L
  BUN: 11 mg/dL
  CRE: 0.2 mg/dL
  Ca: 10.8 mg/dL
  Cl: 106.2 meq/L
  DBIL: 0 mg/dL
  GLC: 175 mg/dL
  IP: 9.3 mg/dL
  K: 4.2 meq/L
  LDH: 161.6 IU/L
  Na: 141.4 meq/L
  PL: 127.2 mg/dL
  RALB: 3 g/dL
  TBIL: 0.022 mg/dL
  TC: 74 mg/dL
  TG: 51.8 mg/dL
  TP: 5.3 g/dL
  gamma-GTP: 1.2 IU/L
[3]
  TERMINAL_BW: 221.7 g
  APTT: 23.2 s
  Bas: 0%
  Eos: 1%
  Fbg: 305.8 mg/dL
  Hb: 12.9 g/dL
  Ht: 39.8%
  Lym: 81%
  MCH: 20.7 pg
  MCHC: 32.4%
  MCV: 64 fL
  Mono: 2.2%
  Neu: 15.4%
  PT: 15.8 s
  Plat: 123.1 x10_4/uL
  RBC: 623 x10_4/ul
  Ret: 7.8%
  WBC: 86.6 x10_2/uL
  KIDNEY_L: 0.9 g
  KIDNEY_R: 1 g
  KIDNEY_TOTAL: 1.9 g
  LIVER: 9.2 g
  A/G: 1.2
  ALP: 1517.2 IU/L
  ALT: 35.6 IU/L
  AST: 71 IU/L
  BUN: 12.4 mg/dL
  CRE: 0.1 mg/dL
  Ca: 10.9 mg/dL
  Cl: 106.2 meq/L
  DBIL: 0 mg/dL
  GLC: 173.6 mg/dL
  IP: 9.2 mg/dL
  K: 4.2 meq/L
  LDH: 137.4 IU/L
  Na: 141.8 meq/L
  PL: 124.8 mg/dL
  RALB: 2.9 g/dL
  TBIL: 0.014 mg/dL
  TC: 70.2 mg/dL
  TG: 76 mg/dL
  TP: 5.3 g/dL
  gamma-GTP: 1 IU/L
[4]
  TERMINAL_BW: 228.5 g
  APTT: 22.4 s
  Bas: 0%
  Eos: 0.8%
  Fbg: 332.8 mg/dL
  Hb: 13.3 g/dL
  Ht: 41.4%
  Lym: 80.6%
  MCH: 19.9 pg
  MCHC: 32%
  MCV: 62 fL
  Mono: 2.6%
  Neu: 15.2%
  PT: 15.8 s
  Plat: 105.4 x10_4/uL
  RBC: 668 x10_4/ul
  Ret: 7.2%
  WBC: 84.3 x10_2/uL
  KIDNEY_L: 0.9 g
  KIDNEY_R: 1 g
  KIDNEY_TOTAL: 1.9 g
  LIVER: 10.2 g
  A/G: 1.2
  ALP: 1529.6 IU/L
  ALT: 46.2 IU/L
  AST: 74.2 IU/L
  BUN: 15.2 mg/dL
  CRE: 0.1 mg/dL
  Ca: 10.5 mg/dL
  Cl: 105.4 meq/L
  DBIL: 0 mg/dL
  GLC: 181 mg/dL
  IP: 7.3 mg/dL
  K: 4.2 meq/L
  LDH: 152.8 IU/L
  Na: 142 meq/L
  PL: 143.8 mg/dL
  RALB: 3.1 g/dL
  TBIL: 0.014 mg/dL
  TC: 77.6 mg/dL
  TG: 78.2 mg/dL
  TP: 5.6 g/dL
  gamma-GTP: 1.4 IU/L
[5]
  TERMINAL_BW: 222.1 g
  APTT: 21.6 s
  Bas: 0%
  Eos: 0.4%
  Fbg: 288.4 mg/dL
  Hb: 13.1 g/dL
  Ht: 40.3%
  Lym: 80.8%
  MCH: 20.8 pg
  MCHC: 32.5%
  MCV: 64 fL
  Mono: 3%
  Neu: 14.6%
  PT: 15.5 s
  Plat: 108.9 x10_4/uL
  RBC: 630.4 x10_4/ul
  Ret: 8%
  WBC: 89.8 x10_2/uL
  KIDNEY_L: 1 g
  KIDNEY_R: 1 g
  KIDNEY_TOTAL: 2 g
  LIVER: 10.1 g
  A/G: 1.2
  ALP: 1378 IU/L
  ALT: 38.4 IU/L
  AST: 70.6 IU/L
  BUN: 13.6 mg/dL
  CRE: 0.1 mg/dL
  Ca: 10.9 mg/dL
  Cl: 106.6 meq/L
  DBIL: 0 mg/dL
  GLC: 167.8 mg/dL
  IP: 8.4 mg/dL
  K: 4.4 meq/L
  LDH: 154 IU/L
  Na: 140.4 meq/L
  PL: 127.4 mg/dL
  RALB: 2.9 g/dL
  TBIL: 0.016 mg/dL
  TC: 68.6 mg/dL
  TG: 71 mg/dL
  TP: 5.3 g/dL
  gamma-GTP: 1.4 IU/L
[6]
  TERMINAL_BW: 219.8 g
  APTT: 21.5 s
  Bas: 0%
  Eos: 0.8%
  Fbg: 309.6 mg/dL
  Hb: 13.3 g/dL
  Ht: 41%
  Lym: 70.8%
  MCH: 20.8 pg
  MCHC: 32.5%
  MCV: 64 fL
  Mono: 3.2%
  Neu: 24.2%
  PT: 15.9 s
  Plat: 118.2 x10_4/uL
  RBC: 640.4 x10_4/ul
  Ret: 7.6%
  WBC: 84.7 x10_2/uL
  KIDNEY_L: 1 g
  KIDNEY_R: 1 g
  KIDNEY_TOTAL: 1.9 g
  LIVER: 9.1 g
  A/G: 1.2
  ALP: 1426.6 IU/L
  ALT: 41.4 IU/L
  AST: 73.6 IU/L
  BUN: 12.6 mg/dL
  CRE: 0.1 mg/dL
  Ca: 10.7 mg/dL
  Cl: 107 meq/L
  DBIL: 0.002 mg/dL
  GLC: 173.8 mg/dL
  IP: 9.1 mg/dL
  K: 4.5 meq/L
  LDH: 175.8 IU/L
  Na: 141 meq/L
  PL: 125 mg/dL
  RALB: 2.9 g/dL
  TBIL: 0.012 mg/dL
  TC: 71 mg/dL
  TG: 50.4 mg/dL
  TP: 5.4 g/dL
  gamma-GTP: 1.2 IU/L
[7]
  TERMINAL_BW: 212.4 g
  APTT: 20.8 s
  Bas: 0%
  Eos: 0.4%
  Fbg: 307 mg/dL
  Hb: 13.5 g/dL
  Ht: 41.4%
  Lym: 73.8%
  MCH: 20.9 pg
  MCHC: 32.7%
  MCV: 63.7 fL
  Mono: 2.8%
  Neu: 21.4%
  PT: 16.4 s
  Plat: 121.3 x10_4/uL
  RBC: 649.2 x10_4/ul
  Ret: 7.1%
  WBC: 84 x10_2/uL
  KIDNEY_L: 1 g
  KIDNEY_R: 1 g
  KIDNEY_TOTAL: 1.9 g
  LIVER: 8.8 g
  A/G: 1.2
  ALP: 1397.6 IU/L
  ALT: 43.4 IU/L
  AST: 86.6 IU/L
  BUN: 17.4 mg/dL
  CRE: 0.1 mg/dL
  Ca: 10.5 mg/dL
  Cl: 107.4 meq/L
  DBIL: 0 mg/dL
  GLC: 164.8 mg/dL
  IP: 9.4 mg/dL
  K: 4.4 meq/L
  LDH: 185.6 IU/L
  Na: 140.8 meq/L
  PL: 114.8 mg/dL
  RALB: 3 g/dL
  TBIL: 0.018 mg/dL
  TC: 68.2 mg/dL
  TG: 22.2 mg/dL
  TP: 5.4 g/dL
  gamma-GTP: 1 IU/L
[8]
  TERMINAL_BW: 228.7 g
  APTT: 23.4 s
  Bas: 0%
  Eos: 1.2%
  Fbg: 288 mg/dL
  Hb: 13.2 g/dL
  Ht: 41%
  Lym: 76.2%
  MCH: 20.1 pg
  MCHC: 32.2%
  MCV: 62.4 fL
  Mono: 3.6%
  Neu: 18.4%
  PT: 16.5 s
  Plat: 122.4 x10_4/uL
  RBC: 658.2 x10_4/ul
  Ret: 7.2%
  WBC: 97.7 x10_2/uL
  KIDNEY_L: 1 g
  KIDNEY_R: 1 g
  KIDNEY_TOTAL: 1.9 g
  LIVER: 10.8 g
  A/G: 1.3
  ALP: 1621.2 IU/L
  ALT: 55 IU/L
  AST: 86.6 IU/L
  BUN: 14.8 mg/dL
  CRE: 0.2 mg/dL
  Ca: 10.4 mg/dL
  Cl: 106.4 meq/L
  DBIL: 0 mg/dL
  GLC: 174.4 mg/dL
  IP: 7.5 mg/dL
  K: 4.5 meq/L
  LDH: 181.4 IU/L
  Na: 141.2 meq/L
  PL: 120.8 mg/dL
  RALB: 3 g/dL
  TBIL: 0.012 mg/dL
  TC: 58.4 mg/dL
  TG: 70.8 mg/dL
  TP: 5.3 g/dL
  gamma-GTP: 1.6 IU/L
